Assay results taken from patent publication US20190112598A1, “Methods and Systems of Cell-Free Enzyme Discovery and Optimization” (President and Fellows of Harvard College, priority 2016, published 2019).

Target: T1, AcuR (Cereibacter sphaeroides, UniProt Q3J6K8)
T1 construct: made in house; host or cells: cell-free expression reaction (NEB P/N E6800 components A and B) from T7-promoter linear dsDNA, made in the assay well itself
T1 sequence (Q3J6K8 1-219): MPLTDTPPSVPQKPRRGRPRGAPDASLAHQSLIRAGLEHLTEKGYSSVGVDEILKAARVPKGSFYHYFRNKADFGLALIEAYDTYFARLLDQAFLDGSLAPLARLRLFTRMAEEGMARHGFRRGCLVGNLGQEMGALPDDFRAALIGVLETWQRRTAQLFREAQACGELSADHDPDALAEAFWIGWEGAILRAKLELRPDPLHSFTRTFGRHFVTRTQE
Assay: Cell-free observation of acrylate: AcuR sensor with GFP reporter in a cell-free expression reaction
Type: biochemical
Settings: 0.1 mM sodium acrylate; 37° C.; 395 nm excitation; measured every two minutes for 4 hours; sample without acrylate rose to 260; FIG. 1
Description: DNA encoded biological acrylate sensor was used to detect acrylate. AcuR is a transcription factor whose activity is dependent on the concentration of acrylate. A linear dsDNA encoding the acrylate sensor AcuR is combined with a reporter circular plasmid which contained a GFP protein controlled by a promoter regulated by AcuR. Thus, GFP fluorescence is related to the amount of acrylate in the sample.
In order to obtain an adequate signal-to-noise ratio (SNR), a T7 promoter was used to drive the expression of the sensor to achieve high expression of the sensor protein and ensure outnumbering of the number of reporter promoters, and well controlled expression. Additionally, an E. coli RNAP promoter was used to drive expression on the reporter, as it reduces the level of background signal, and provides with a more accurate control by AcuR.
Linear DNA amplification: Linear dsDNA containing AcuR was prepared by PCR amplification using primers which contain a T7 promoter, and ribosome binding site (RBS). […]
The samples were incubated at 37° C., and the fluorescence signal (395 nm excitation, 470 nm […]) of the sample was measured every two minutes for 4 hours.

## C=CC(=O)O [acrylate]
  increase of fluorescence (GFP reporter signal): 750 arbitrary units
